We go through 87 molecules from a melting point compilation (Tetko et al.; mined from patent text by program, amines drawn as free bases though some values may be those of a salt).

`CNC(=O)N1c2ccccc2CC1C` (configuration not stated) came in with a melting point of 158 to 160 °C.
Under `CCOC(=O)c1cn(-c2nc(NCc3ccc(OC)cc3)c(F)cc2F)c2c(Cl)c(F)c(F)cc2c1=O` stands 197 to 200 °C.
For the molecule `O=C(O)C(=O)c1ccc(SCCOc2ccc3ccccc3c2)cc1`, the melting point was in the range of 161 to 162 °C.
Under `O=C(O)c1ccccc1-c1ccc(-c2ccc(C(F)(F)F)cc2)o1` stands 182 to 183 °C; under `O=C(Nc1ccc(NC(=O)OCCCl)nc1)OCCCl`, 198 °C.
As for `O=C(Nc1cccnc1)N1N=CCC1c1ccccc1` (configuration not stated), the melting point was 104 to 106 °C.
Molecule `N#CN=C(Nc1ccc(C#N)cc1O)Nc1cccc(Cl)c1Cl` showed a melting point of 155 to 156 °C.
The value for `COC(=O)Oc1ccc(C(=O)CBr)c(OC(=O)OC)c1` was 73 to 74 °C; that for `CCOC(=O)C1N=C(c2ccccc2)c2ccccc2NC1=O` (configuration not stated) was 226 °C.
Under `CSC(=NC(=O)OCc1ccccc1)NNC(=O)NC(=O)OCc1ccccc1` stands 165 to 166 °C; under `CC(C)NC(=N)NC(=N)NOCCCOc1ccc(OC(F)(F)F)cc1`, 154 to 155 °C; under `O=C(c1ccccc1)c1ccc(OCCOCCO)cc1`, 31 to 32 °C.
As for `Clc1cncc(Cl)c1C1=NC(c2ccc(I)cc2)CO1` (configuration not stated), the melting point lay within 90 to 92 °C.
For the molecule `C=CCNC(=O)Cn1c(-c2ccc(Cl)cc2)nc2cccnc21`, the melting point was 208 to 209 °C.
Under `CCCCOc1c(CN2C(=O)c3ccccc3C2=O)n(CCC(=O)N2CCCC2)c(=O)c2cc(Cl)c(Cl)cc12` stands 222 °C.
The value for `COc1ccc(S(=O)(=O)C(CCCc2ccccc2)CC(=O)O)cc1OC` (configuration not stated) was 161 to 162 °C; that for `Cn1cnc2ccc(-c3nnc(SCc4cccc(C(F)(F)F)c4)o3)cc21` was 126 to 127 °C.
Under `Cc1cc(-c2ccc(-c3ccccc3)c(-c3ccc4c(c3)C(C)(C)CCC4(C)C)c2)ccc1C(=O)O` stands 130 to 132 °C; under `CCNC(=S)N1CCN(c2cncc(OC)n2)CC1`, 120 to 122 °C.
In turn, `O=C1CCC(Cc2ccc3ccccc3c2)=C1O` registered a melting point of 120 to 122 °C.
Take `O=C(c1ccccc1Cl)N1Cc2c(-c3noc(C4CC4)n3)ncn2-c2ccccc21`: the melting point was 254 to 256 °C.
The value for `Cn1c(=O)[nH]c2nc3ccc(OCCCCC(=O)O)cc3cc21` was 311 to 313 °C; that for `COCCN1CCN(CCCOc2ccc3nc(C#N)nc(NCC(C)(C)C)c3c2)CC1` was 92 to 94 °C; that for `CCc1cccc2c1C(=O)N1CCC[C@H]1c1c(C(=O)OC(C)(C)C)ncn1-2` was 155 to 156 °C.
On to `NC(=O)Cc1cc(Oc2ccc3c(ccn3C(=O)Nc3ccc(-c4cccnc4)c(C(F)(F)F)c3)c2)ncn1`, for which the melting point lay in the range of 171 to 172 °C.
Regarding `O=C(O)C(=O)Nc1cc(-c2ccc(-c3cccc4c3oc3ccccc34)cc2)cn(Cc2ccccc2)c1=O`, the melting point lay within 220 to 223 °C.
The value for `COc1cc(CCC(=O)O)ccc1OCc1sc(-c2ccc(C(F)(F)F)cc2)nc1C` was 150 to 152 °C; that for `Cc1ccc(N2C=NC3CCCCC3C2=O)cc1` (configuration not stated) was 79 to 82 °C; that for `NC(=O)NC[C@@H]1CCCc2cc(Sc3cccc(F)c3)cc(F)c21` was 131 to 132 °C.
`CCN(C(=O)c1ccccc1C(=O)c1ccccc1)C1CCCCC1NS(=O)(=O)c1ccc(C)cc1` (configuration not stated): the melting point was 202 to 204 °C.
`CC[C@H](C)[C@H](NC(=O)NC(C)C)C(=O)N[C@H](CO)Cc1c[nH]c2ccccc12` yielded a melting point of 211 to 213 °C.
The value for `NC[C@@H]1C(=O)N[C@H]1SC(c1ccccc1)(c1ccccc1)c1ccccc1` (relative stereo) was 139 °C; that for `CN(C)C(=O)Cc1nn(-c2ccccc2)c(=O)c2[nH]c3ccc(F)cc3c12` was 289 to 290 °C.
Under `CC(=O)Nc1nc(CN2CCN(C(c3ccccc3)c3ccc(Cl)cc3)CC2)cs1` (configuration not stated) stands 140 to 145 °C.
As to `C=CCn1c2ccccc2c2sccc(=O)c21`, the melting point was 67 to 68 °C.
The value for `NC(=NCC(F)(F)F)Nc1ccnc(SCCCC(=O)NCCO)n1` was 148 to 150 °C; that for `COc1cc(N)c(Cl)cc1C(=O)NCC1CN(CC2CCN(C(=O)N(C)C)CC2)CCO1` (configuration not stated) was 179 to 180 °C.
The value for `Nc1ncnc2c1ncn2[C@@H]1O/C(=C\F)[C@@H](O)[C@H]1O` was 225 to 230 °C; that for `CC[C@H](C)[C@H](NC(=O)O[C@@H](CC(C)C)C(=O)OCc1ccccc1)C(=O)NC1CCCCC1` was 98 to 100 °C.
`C=Cc1cc(C(C)(C)C)c(O)c(C(C)(C)C)c1` had a melting point of 36 to 39 °C.
In turn, `Cc1ccc2c(c1)c(N1CCN(C(=O)c3cccs3)CC1)c(C#N)c(=O)n2CCN1CCOCC1` returned a melting point of 207 °C.
Under `COC(=O)c1ccc(C23CC4CC(CC(C4)C2)C3)c(O)c1` stands 244 to 246 °C.
Molecule `CCCN(CCC)C(=O)CNc1nc(-c2ccccc2)nc(C)c1CC` registered a melting point of 83 to 84 °C.
`Nc1ccccc1-c1ncco1` returned a melting point of 31 to 32 °C.
Under `CCCc1c(OCCCCCOc2ccccc2CCC(=O)O)ccc2c1OCC2=O` stands 101 to 102 °C.
Turning to `CS(=O)(=O)C(=C1CN(C(c2ccccc2)c2ccccc2)C1)c1cccc(I)c1`, the melting point was 198 °C.
Turning to `Cc1sc2cc(O)ccc2c1C1=C(c2c(C)sc3cc(O)ccc23)C(F)(F)C(F)(F)C1(F)F`, the melting point is 236 to 237 °C.
Molecule `CCOC(=O)C(=O)CC(=O)c1cn(Cc2ccc(F)cc2)c2c(F)cccc2c1=O` registered a melting point of 179 to 180 °C.
Molecule `COC(=O)c1cc(-c2ccc(OCc3cccnc3)cc2O[C@H](CCC(=O)O)c2ccccc2C)n[nH]1` returned a melting point of 155 to 156 °C.
The molecule `CCOC(=O)c1ccc2snnc2c1` came in with a melting point of 74.5 to 77 °C.
Consider `CCCOc1ccc(S(=O)(=O)N2CC(CN(C)C)C2)cc1-c1nc2c([nH]1)c1nncn1c(=O)n2CCC`, for which the melting point was determined as 172 °C.
With `CC(C#Cc1ccc(C=Cc2ccc(F)cc2)o1)N(O)C(N)=O` (configuration not stated), the melting point worked out at 177 °C.
The molecule `CC(CCC=O)C1CCC2C3CC=C4CC(O)CC(O)C4(C)C3CCC12C` (configuration not stated) showed a melting point of 120 to 122 °C.
The value for `O=C(NCCN1CCOCC1)c1nnc2ccccc2c1O` was 196 to 198 °C; that for `CCn1ncc2c(NCC3CCCCC3)c3cc(NC(C)=O)ccc3nc21` was 277 to 278 °C; that for `CN1C(=O)C(NC(=O)CCc2ccccc2)N=C(N(C)C2CCCCC2)c2ccccc21` (configuration not stated) was 167 to 168 °C.
Molecule `COc1ccc(Cc2nc3c(N)nc4ccccc4c3n2CCCCNC(=O)c2ccc3ccccc3n2)cc1` registered a melting point of 95.1 to 97.4 °C.
The molecule `Cc1cccc(-c2nc3ccc(OCCN(C)C)cc3n2Cc2ccccc2Br)c1` gave a melting point of 71 °C.
The value for `O=C1NC(C(Cl)(Cl)Cl)Nc2ccc(I)cc21` (configuration not stated) was 224 to 225 °C.
The value for `CSC(=S)N1CC(C)(C)CSC1=Nc1ccccc1C(C)C` was 77 to 79 °C; that for `CCCCCCCCCCOc1ccc(C(=O)O)o1` was 124 to 126 °C; that for `CC(C)C1(C)N=C(c2nc3scc([N+](=O)[O-])c3cc2C(=O)O)NC1=O` (configuration not stated) was 260 °C.
As to `Nn1cccc1C(=O)c1ccccc1Cl`, the melting point fell in the range of 76 to 78 °C.
In turn, `COc1ccc(N2CCN(Cc3n[nH]c4c3Cc3ccccc3-4)CC2)cc1` registered a melting point of 176 to 178 °C.
`COc1ccc(C2CC(=O)OC(=O)C2)cc1`: the melting point lay within 144 to 149 °C.
The molecule `C[C@@H](N1CCN(c2ccc(-n3cnn(Cc4ccc(OCC(F)(F)C(F)F)cc4)c3=O)cc2)CC1)[C@](O)(Cn1cncn1)c1ccc(F)cc1F` yielded a melting point of 83 to 85 °C.
With `CCCCCc1ccc(C=Cc2cc3sc(C=Cc4ccc(CCCCC)cc4)cc3s2)cc1`, the melting point came to 320 °C.
Under `COc1ccc2c(n1)c(CCNC(=O)c1ccco1)c1n2CCCC1` stands 104 to 105 °C.
The value for `CC1CC(=O)c2c(OS(=O)(=O)c3cccs3)ccc(Br)c2C1` (configuration not stated) was 110 to 113 °C; that for `O=C(Nc1ccc(-n2nc(C(F)(F)F)cc2Br)cc1)c1cccc(F)c1F` was 109 to 112 °C; that for `CCCCc1nn2cc(C)nc2n1Cc1ccc(-c2ccccc2-c2nnn[nH]2)cc1` was 124 to 125 °C.
Under `COc1ccc(/C=C/C(=O)C2C(=O)CC(c3ccc(OC)cc3)C([N+](=O)[O-])C2C2CCCCC2)cc1` (configuration not stated) stands 203 to 205 °C.
`CCOC(=O)CC1NCCN(CCc2c[nH]c3ccc(Cl)cc23)C1=O` (configuration not stated) registered a melting point of 136 °C.
`NCCCOc1cccc2[nH]c3ccccc3c12`: the melting point lay within 146 to 147 °C.
The value for `COc1cc(N)ccc1N1CCN(CCCNc2c(C)c(=O)n(C)c(=O)n2C)CC1` was 146 to 148 °C; that for `Cc1ccc(OC(=O)n2c3c(c(=O)n(C4CCCCO4)c2=O)CCC3)cc1` (configuration not stated) was 136 °C.
For the molecule `COC(=O)c1ccc2c(c1)Sc1ccccc1CC2Br` (configuration not stated), the melting point lay within 116 to 123 °C.
Under `CCCCSc1nc(N)c(C(=O)c2ccccc2)s1` stands 91 to 94 °C.
Under `Cc1cc(N)ccc1C(O)c1ccccn1` (configuration not stated) stands 102 to 104 °C; under `COc1ccc2c(c1OC)CCN(CCc1ccc([N+](=O)[O-])cc1)C2`, 97 °C.
As to `CCCCC(C=C1c2cc3c(cc2-c2sc(-c4cc5sccc5s4)cc21)C(=CC(CC)CCCC)c1cc(-c2cc4sccc4s2)sc1-3)CC` (configuration not stated), the melting point turned out to be 320 °C.
Under `COc1ccc(-c2cnc3[nH]c4ccccc4c3c2)cc1` stands above 220 °C; under `CCC(=O)Nc1ccc2[nH]cc(C3CCN(C)CC3)c2n1`, 98.9 to 101 °C.
Molecule `CCS(=O)C1CCC2C3CCC4=CC(=O)C=CC4(C)C3(F)C(O)CC21C` (configuration not stated) returned a melting point of 247 to 250 °C.
The value for `CS(=O)(=O)OCCN(CCCl)c1ccc([N+](=O)[O-])c(C(=O)NCCCO)c1[N+](=O)[O-]` was 104 to 109 °C; that for `N#Cc1ccc([C@H]2CC[C@H](C=C(F)F)CC2)cc1` was 59.3 °C; that for `CC1CC(C)CN(C(=O)c2ccccc2)C1` (configuration not stated) was 107 to 109 °C.

Broadly, the melting point is the temperature, or range, at which the solid turns liquid.
